# Experimental data from patent US12533350B2, “Use of melanocortin-1 receptor agonist” (TANABE PHARMA CORPORATION, priority 2022, dated 2026).
# Tests used:
# [1] = system: bleomycin (BLM)-induced systemic sclerosis (SSc) model: skin fibrosis and lung inflammation
# Protocol: The back of mice was shaved, and the middle of the back was marked with oil-based red ink. Phosphate-buffered saline (PBS) or BLM (Nippon Kayaku) (0.15 mg/0.1 mL per animal) was subcutaneously injected at the marked site once daily from day 0 to day 25. Compound A solutions at 0.1 mL/10 g of body weight were orally administered once daily (approximately 2 hours before the BLM injection) for 29 consecutive days from day 0 until the day before the end of evaluation (day 28).
# On day 29, mice were euthanized by inhalation anesthesia with isoflurane, and whole blood and back skin samples were collected. The left lung was dissected, weighed, and immersed in RNAlater solution (Qiagen). The collected blood was separated into serum. The injection site of skin was excised, weighed (wet weight) and immersed in 0.5 mol/L acetic acid solution containing 0.3 mg/mL pepsin to solubilize collagen. The collagen content of the solubilized sample was explored using the QuickZyme Soluble Collagen Assay kit (QuickZyme Biosciences), and absorbance was determined by a microplate reader (VERSAmax, Molecular Devices, LLC). Serum levels of surfactant protein D (SP-D) were assayed using the Rat/Mouse SP-D kit YAMASA EIA (Yamasa Corporation), and absorbance was determined by a microplate reader (VERSAmax, Molecular Devices, LLC). Total RNA of lungs was isolated using RNeasy 96 Universal Tissue Kit (Qiagen) according to the manufacturer's instructions. Real-time PCR was performed using the One Step SYBR PrimeScript PLUS RT-PCR Kit (Takara Bio Inc.) and ABI PRISM 7900HT Real Time PCR System (Applied Biosystems). Takara perfect real time primer pairs (Takara Bio Inc.) were used to analyze the gene expression of chemokine Cc12 (also named as monocyte chemotactic protein-1 (Mcp-1, MA066003)), interleukin-6 (IL-6, MA039013), and hypoxanthine phosphoribosyltransferase (Hprt, MA031262). Quantification was performed using the comparative CT (cycle threshold) method employing Hprt as the housekeeping gene. A serum concentration of endothelin 1 (ET-1) was assayed using Quantikine Endothelin-1 (R & D systems) and the absorbance was measured by the microplate reader (VERSAmax, Molecular Devices, LLC).
# Therefore, differences in body weight at each time point were analyzed between the PBS_vehicle and BLM_vehicle groups using Student's t test.
# [2] = system: dermal fibroblasts from SSc patients; assay: TGF-β-induced human fibroblast activation, SSc patients; assay type: cell-based; conditions: concentration of 1000 nmol/L; TGF-β 10 ng/mL, 24 hours
# Excerpt: Full-thickness skin biopsies were obtained from clinically involved skin of patients affected by dcSSc, who were recruited from the Systemic sclerosis clinic within the Leeds Institute of Rheumatic and Musculoskeletal Medicine (UK). Control skin samples were from healthy donors. All patients with dcSSc and healthy donors provided written informed consent through the stratification for risk of progression in systemic sclerosis (STRIKE SSC), which had been approved by the North-East Research Ethic committee. Patients with SSc fulfilled the 2013 ACR/EULAR classification criteria for SSc and were classified as having dcSSc according to the LeRoy and Medsger criteria.
# Dermal fibroblasts were isolated from the skin biopsy samples of healthy donors and SSc patients. […]
# Total RNA was extracted using the Zymo quick RNA mini prep kit according to manufacturer's instructions (Zymo Research Corporation). […] Quantitative RT-PCR was performed in triplicates using SYBR Green RT-PCR Mastermix Kit (Thermo Fisher Scientific) and the ABI PRISM 7500 Fast Real Time PCR System (Applied Biosystems). […]
# FIGS. 5(A)-5(B) show the effect of Compound A on human fibroblast activation. […] Each bar represents the mean±SEM of the measured values from three wells. […]
# [3] = Compound A at ≥0.3 mg/kg orally once daily day 0-28, measured day 29
# [4] = Compound A at ≥0.3 mg/kg orally once daily day 0-28, measured day 29, relative to Hprt
structure (smiles),measurement,setting,value
"COC[C@H]1CN(C(=O)[C@]2(F)CN(C3CCCC3)C[C@H]2c2ccc(OC)cc2)C[C@@H]1c1ccc(C(F)(F)F)cc1N1CCC(C(=O)O)CC1 [Compound A, 1-{2-[(3S,4R)-1-{[(3R,4R)-1-cyclopentyl-3-fluoro-4-(4-methoxyphenyl)pyrrolidin-3-yl]carbonyl}-4-(methoxymethyl)pyrrolidin-3-yl]-5-(trifluoromethyl)phenyl}piperidine-4-carboxylic acid]",BLM-induced increase of collagen content of the skin,[1]; [3],inhibited significantly
same,BLM-induced increase of serum concentration of ET-1,[1]; [3],inhibited significantly
same,BLM-induced increase of serum level of SP-D,[1]; [3],inhibited significantly
same,BLM-induced increase of wet weight of the left lung,[1]; [3],inhibited significantly
same,BLM-induced increase of IL-6 mRNA expression in the lung,[1]; [4],inhibited significantly
same,BLM-induced increase of Mcp-1 mRNA expression in the lung,[1]; [4],inhibited significantly
same,BLM-induced decrease of body weight,"[1]; Compound A at ≥0.3 mg/kg orally once daily, day 0 to day 29",significantly improved
same,TGF-β-induced increase in αSMA mRNA expression,[2],suppressed
